Test results taken from patent US10588889B2 (priority 2015, dated 2020).

Tests used:
[1] = tested on: nociceptive sensitization; experiment: Subject with opioid-induced increased nociceptive sensitization switched to compound (Example 4); type: in vivo; conditions: subject switched from opioid to pharmaceutical composition of compound
Excerpt: A subject is identified as having increased nociceptive sensitization due to being administered an opioid for pain relief. The subject is switched from the opioid to a pharmaceutical composition comprising Compound 140 or Compound 265. The subject's nociceptive sensitization is decreased while maintaining the pain relief.

[2] = tested on: opioid induced hyperalgesia; experiment: Human subject with morphine-induced hyperalgesia switched to compound (Example 3); type: in vivo; conditions: morphine stopped, compound administered
[3] = tested on: mouse model of opioid induced hyperalgesia; conditions: in vivo, sc

Row | Compound | nociceptive sensitization after switch from opioid [1] | opioid induced hyperalgesia in human subject after stopping morphine [2] | % non-responses to 10 applications of a 0.4 g von Frey filament (hyperalgesia induction) [3]
1 | COc1ccsc1CNCC[C@@]1(c2ccccn2)CCOC2(CCCC2)C1 [Compound 140] | decreased | treated and reduced | 
2 | COc1ccc2c3c1O[C@H]1C(=O)CC[C@@]4(O)[C@@H](C2)N(C)CC[C@]314 [Oxycodone] |  |  | decreased the % non-responses
